Values of other authors as cited in patent US8546585B2, “Process for preparing eprosartan mesylate” (Zhejiang Huahai Pharmaceutical Co., Ltd., priority 2008, dated 2013).
Where a name gives a salt, the structure may show the parent alone.

Assays:
[1] = mild, moderate and severe hypertensive patients
[2] = not given; remark: listed apart in the source
[3] = patients with liver and kidney dysfunction, or fullness after administration

protein binding rate: 98% | absorption ([2]; administrated orally): rapidly absorbed | AUC (Area Under Curve) elevated by [2, 3]: about 50% | blood peak concentration elevated by [2, 3]: about 50%
Structure (SMILES): CCCCc1ncc(/C=C(\Cc2cccs2)C(=O)O)n1Cc1ccc(C(=O)O)cc1 [Eprosartan mesylate]
lowering of systolic and diastolic pressures [1]: potent to lower systolic and diastolic pressures | safety and tolerability [1]: safe and tolerable
